Results on twelve compounds are retold here after article PMC3961306, “Comparison of the Cancer Gene Targeting and Biochemical Selectivities of All Targeted Kinase Inhibitors Approved for Clinical Use” (PLoS ONE, 2014).

Assay in all cases: Kinase profiling in a biochemical assay panel (mobility shift assays and ELISA), %-inhibition at 1 μM; selectivity entropy
Experiment [1] concerns the target panel of more than 300 wild-type and mutant kinases (313 kinase panel) (Homo sapiens, UniProt P10721). The settings on record: kinase KIT; compound at 1 μM.
Experiment [2] has as its target panel of more than 300 wild-type and mutant kinases (313 kinase panel) (Homo sapiens, UniProt P53779). The following applies: kinase JNK3; compound at 1 μM.
For experiment [3], the target named is panel of more than 300 wild-type and mutant kinases (313 kinase panel) (Homo sapiens, UniProt Q9H422). The following applies: kinase HIPK3; compound at 1 μM.
Experiment [4] has as its target panel of more than 300 wild-type and mutant kinases (313 kinase panel) (Homo sapiens, UniProt Q15208). The settings on record: kinase NDR1; 1 μM.
Experiment [5] addresses T1, panel of more than 300 wild-type and mutant kinases (313 kinase panel) (Homo sapiens, UniProt P41743).
T1 sequence (P41743 1-596): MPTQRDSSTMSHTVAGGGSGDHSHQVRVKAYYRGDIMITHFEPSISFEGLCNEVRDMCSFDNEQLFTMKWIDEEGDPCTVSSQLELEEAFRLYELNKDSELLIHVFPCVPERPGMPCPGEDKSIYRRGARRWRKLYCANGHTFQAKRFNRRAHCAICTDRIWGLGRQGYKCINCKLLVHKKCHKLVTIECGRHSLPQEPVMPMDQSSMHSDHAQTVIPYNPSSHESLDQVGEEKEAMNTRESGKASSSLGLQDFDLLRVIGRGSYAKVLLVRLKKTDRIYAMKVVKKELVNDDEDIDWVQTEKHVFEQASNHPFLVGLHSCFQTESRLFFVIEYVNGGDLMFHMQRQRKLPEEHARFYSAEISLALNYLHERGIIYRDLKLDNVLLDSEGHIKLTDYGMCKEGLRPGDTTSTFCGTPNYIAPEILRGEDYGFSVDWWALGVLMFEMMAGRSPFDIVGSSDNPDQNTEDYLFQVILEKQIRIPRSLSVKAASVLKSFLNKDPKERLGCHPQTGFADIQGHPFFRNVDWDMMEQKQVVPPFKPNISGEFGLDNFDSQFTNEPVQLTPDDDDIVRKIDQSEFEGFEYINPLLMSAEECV
The following applies: kinase PKCι; 1 μM.

In experiment [6] the target is panel of more than 300 wild-type and mutant kinases (313 kinase panel) (Homo sapiens, UniProt Q9Y6R4). The settings on record: kinase MAP3K4; compound at 1 μM.
Chain of panel of more than 300 wild-type and mutant kinases (313 kinase panel) (Homo sapiens, UniProt Q9Y6R4) (Q9Y6R4 whole entry, change not shown): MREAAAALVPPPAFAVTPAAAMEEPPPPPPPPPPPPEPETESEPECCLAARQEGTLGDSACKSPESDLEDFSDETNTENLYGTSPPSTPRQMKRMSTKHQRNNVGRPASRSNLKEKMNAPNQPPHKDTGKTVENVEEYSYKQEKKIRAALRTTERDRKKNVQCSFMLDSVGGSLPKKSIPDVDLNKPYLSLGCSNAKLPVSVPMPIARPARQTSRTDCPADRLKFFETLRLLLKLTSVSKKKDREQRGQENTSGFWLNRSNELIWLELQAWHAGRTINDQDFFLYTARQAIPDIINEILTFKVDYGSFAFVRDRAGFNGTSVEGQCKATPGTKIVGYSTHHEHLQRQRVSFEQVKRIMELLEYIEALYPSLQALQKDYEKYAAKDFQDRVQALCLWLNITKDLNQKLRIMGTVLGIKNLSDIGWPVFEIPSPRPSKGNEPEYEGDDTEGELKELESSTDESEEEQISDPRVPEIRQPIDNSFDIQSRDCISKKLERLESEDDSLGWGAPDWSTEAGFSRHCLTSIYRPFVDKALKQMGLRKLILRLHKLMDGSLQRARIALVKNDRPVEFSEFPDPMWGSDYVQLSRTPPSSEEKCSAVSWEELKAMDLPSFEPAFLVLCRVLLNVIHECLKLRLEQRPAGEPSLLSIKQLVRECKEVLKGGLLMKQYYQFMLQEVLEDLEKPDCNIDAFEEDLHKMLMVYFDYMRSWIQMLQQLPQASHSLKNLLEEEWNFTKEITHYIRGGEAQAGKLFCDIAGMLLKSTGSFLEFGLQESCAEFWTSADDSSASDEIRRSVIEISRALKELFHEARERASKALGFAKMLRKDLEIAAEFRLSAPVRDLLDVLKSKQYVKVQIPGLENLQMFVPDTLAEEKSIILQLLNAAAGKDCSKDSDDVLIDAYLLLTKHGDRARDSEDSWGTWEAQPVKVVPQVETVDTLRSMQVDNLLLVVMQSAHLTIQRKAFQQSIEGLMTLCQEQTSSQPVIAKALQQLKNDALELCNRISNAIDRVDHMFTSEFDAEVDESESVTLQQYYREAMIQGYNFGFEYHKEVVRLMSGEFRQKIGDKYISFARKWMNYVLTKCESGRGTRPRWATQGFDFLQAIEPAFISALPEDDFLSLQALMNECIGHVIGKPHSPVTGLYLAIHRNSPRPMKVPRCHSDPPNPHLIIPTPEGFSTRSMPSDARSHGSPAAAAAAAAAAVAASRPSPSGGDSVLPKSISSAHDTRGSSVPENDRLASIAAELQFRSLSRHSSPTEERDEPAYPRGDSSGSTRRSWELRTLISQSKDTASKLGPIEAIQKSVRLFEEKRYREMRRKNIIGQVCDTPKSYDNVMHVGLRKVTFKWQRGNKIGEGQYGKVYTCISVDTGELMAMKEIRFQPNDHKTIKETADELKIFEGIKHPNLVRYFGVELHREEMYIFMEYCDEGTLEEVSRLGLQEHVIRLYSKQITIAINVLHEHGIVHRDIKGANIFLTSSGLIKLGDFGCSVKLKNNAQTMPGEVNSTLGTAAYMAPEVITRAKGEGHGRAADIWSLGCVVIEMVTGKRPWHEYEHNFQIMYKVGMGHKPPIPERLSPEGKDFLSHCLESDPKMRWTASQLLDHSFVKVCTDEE
For experiment [7], the target named is T2, panel of more than 300 wild-type and mutant kinases (313 kinase panel) (Homo sapiens, UniProt P51955).
T2 sequence (P51955 1-445): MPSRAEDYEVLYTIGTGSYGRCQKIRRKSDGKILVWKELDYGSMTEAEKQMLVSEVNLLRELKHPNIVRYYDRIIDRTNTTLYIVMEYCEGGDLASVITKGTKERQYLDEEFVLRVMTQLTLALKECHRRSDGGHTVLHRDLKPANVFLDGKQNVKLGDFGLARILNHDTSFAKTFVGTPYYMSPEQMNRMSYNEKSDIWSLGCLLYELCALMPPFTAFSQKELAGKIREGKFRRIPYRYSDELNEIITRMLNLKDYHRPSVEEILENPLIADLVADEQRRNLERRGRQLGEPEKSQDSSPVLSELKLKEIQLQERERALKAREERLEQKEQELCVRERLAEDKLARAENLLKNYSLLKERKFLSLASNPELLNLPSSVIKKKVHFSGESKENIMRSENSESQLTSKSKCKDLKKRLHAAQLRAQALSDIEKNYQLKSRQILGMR
The settings on record: kinase NEK2; 1 μM.

Experiment [8] deals with panel of more than 300 wild-type and mutant kinases (313 kinase panel) (Homo sapiens, UniProt O60674). The settings on record: kinase JAK2; compound at 1 μM.
Chain of panel of more than 300 wild-type and mutant kinases (313 kinase panel) (Homo sapiens, UniProt O60674) (O60674 whole entry, change not shown): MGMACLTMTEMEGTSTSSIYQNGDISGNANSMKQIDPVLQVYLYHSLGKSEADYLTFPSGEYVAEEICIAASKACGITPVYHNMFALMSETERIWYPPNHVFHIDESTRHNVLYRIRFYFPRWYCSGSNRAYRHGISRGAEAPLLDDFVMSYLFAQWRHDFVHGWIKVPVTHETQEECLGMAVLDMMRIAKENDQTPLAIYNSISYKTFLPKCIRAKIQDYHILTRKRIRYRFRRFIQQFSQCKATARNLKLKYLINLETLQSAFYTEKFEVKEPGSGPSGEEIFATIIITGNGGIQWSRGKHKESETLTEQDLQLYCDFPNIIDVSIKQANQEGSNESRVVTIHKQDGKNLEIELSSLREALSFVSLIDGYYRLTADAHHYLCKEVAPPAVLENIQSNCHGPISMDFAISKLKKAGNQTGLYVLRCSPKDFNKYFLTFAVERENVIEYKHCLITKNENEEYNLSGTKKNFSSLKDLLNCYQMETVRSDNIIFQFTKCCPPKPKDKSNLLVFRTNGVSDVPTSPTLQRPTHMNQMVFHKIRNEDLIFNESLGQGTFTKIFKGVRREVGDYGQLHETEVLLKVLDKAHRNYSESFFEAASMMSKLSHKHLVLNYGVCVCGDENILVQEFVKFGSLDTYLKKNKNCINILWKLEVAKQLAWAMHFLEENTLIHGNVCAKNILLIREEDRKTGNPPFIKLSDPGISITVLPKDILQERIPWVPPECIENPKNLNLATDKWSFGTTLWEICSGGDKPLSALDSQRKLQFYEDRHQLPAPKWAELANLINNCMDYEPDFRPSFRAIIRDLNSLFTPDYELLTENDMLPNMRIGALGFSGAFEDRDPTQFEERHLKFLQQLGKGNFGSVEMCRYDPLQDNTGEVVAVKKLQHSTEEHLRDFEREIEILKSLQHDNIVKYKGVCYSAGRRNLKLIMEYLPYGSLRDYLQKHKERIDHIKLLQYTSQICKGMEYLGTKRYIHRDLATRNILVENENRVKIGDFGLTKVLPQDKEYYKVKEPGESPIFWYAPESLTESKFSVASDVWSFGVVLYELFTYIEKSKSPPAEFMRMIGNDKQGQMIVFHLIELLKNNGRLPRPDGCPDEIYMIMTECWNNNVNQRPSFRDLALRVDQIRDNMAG
The target of experiment [9] is panel of more than 300 wild-type and mutant kinases (313 kinase panel) (Homo sapiens, UniProt P07948). The settings on record: kinase LYNa; compound at 1 μM.
Experiment [10] addresses panel of more than 300 wild-type and mutant kinases (313 kinase panel) (Homo sapiens, UniProt P51812). The following applies: kinase RSK2; 1 μM.
The target of experiment [11] is panel of more than 300 wild-type and mutant kinases (313 kinase panel) (Homo sapiens, UniProt P08581, Y1235D).
Setting [12] is: kinase MET(Y1235D), compound at 1 μM.

Molecules are shown by their SMILES.

Chain of panel of more than 300 wild-type and mutant kinases (313 kinase panel) (Homo sapiens, UniProt Q15208) (Q15208 whole entry, change not shown): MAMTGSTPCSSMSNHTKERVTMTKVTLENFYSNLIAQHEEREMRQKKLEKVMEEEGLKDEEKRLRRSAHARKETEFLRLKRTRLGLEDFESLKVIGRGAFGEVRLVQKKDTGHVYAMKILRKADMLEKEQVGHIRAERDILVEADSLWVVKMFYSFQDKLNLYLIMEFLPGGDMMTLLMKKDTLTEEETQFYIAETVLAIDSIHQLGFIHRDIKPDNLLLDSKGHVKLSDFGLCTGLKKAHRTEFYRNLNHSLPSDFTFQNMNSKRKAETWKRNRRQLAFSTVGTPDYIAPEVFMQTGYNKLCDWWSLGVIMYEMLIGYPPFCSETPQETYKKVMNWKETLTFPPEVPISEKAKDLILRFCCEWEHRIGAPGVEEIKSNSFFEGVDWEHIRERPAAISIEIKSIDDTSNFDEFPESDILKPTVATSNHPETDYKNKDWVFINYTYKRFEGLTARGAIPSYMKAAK
Chain of panel of more than 300 wild-type and mutant kinases (313 kinase panel) (Homo sapiens, UniProt P10721) (P10721 26-976, change not shown): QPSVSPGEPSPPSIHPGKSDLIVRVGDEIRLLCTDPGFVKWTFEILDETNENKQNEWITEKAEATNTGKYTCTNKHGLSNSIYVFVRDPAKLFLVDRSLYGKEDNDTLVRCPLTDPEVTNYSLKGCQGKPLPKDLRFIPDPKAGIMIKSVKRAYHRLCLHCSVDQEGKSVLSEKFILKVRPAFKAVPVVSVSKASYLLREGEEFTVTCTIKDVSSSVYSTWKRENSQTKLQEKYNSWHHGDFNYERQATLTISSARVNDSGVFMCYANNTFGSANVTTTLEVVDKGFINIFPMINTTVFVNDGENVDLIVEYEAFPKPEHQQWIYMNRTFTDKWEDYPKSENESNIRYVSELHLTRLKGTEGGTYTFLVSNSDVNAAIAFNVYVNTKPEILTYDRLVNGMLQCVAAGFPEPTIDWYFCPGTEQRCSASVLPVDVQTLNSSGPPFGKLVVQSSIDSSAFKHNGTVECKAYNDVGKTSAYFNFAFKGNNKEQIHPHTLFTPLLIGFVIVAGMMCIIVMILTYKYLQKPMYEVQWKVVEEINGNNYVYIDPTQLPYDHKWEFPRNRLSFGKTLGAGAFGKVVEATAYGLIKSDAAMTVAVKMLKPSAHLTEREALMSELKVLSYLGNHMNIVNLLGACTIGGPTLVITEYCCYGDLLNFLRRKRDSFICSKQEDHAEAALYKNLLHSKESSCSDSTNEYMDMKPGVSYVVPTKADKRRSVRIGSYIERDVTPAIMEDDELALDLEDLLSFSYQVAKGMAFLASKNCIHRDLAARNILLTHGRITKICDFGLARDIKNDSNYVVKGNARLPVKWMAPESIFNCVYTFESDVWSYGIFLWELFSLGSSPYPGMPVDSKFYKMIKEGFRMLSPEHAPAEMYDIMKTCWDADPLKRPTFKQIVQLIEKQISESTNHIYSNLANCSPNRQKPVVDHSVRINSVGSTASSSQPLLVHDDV
Chain of panel of more than 300 wild-type and mutant kinases (313 kinase panel) (Homo sapiens, UniProt P53779) (P53779 whole entry, change not shown): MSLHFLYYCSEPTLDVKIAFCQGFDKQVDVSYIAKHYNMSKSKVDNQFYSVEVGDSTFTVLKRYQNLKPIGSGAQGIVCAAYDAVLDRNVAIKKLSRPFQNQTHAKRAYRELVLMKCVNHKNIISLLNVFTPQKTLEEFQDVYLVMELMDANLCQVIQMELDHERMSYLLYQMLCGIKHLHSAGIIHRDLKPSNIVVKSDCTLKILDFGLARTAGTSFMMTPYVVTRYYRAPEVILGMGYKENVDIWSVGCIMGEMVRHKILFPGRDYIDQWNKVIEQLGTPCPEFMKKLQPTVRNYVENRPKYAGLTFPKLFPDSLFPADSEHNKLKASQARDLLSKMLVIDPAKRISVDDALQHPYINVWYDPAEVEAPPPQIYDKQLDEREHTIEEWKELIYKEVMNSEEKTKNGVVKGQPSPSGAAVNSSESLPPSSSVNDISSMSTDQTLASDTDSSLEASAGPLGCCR

On to `COc1cc2nccc(Oc3ccc(NC(=O)C4(C(=O)Nc5ccc(F)cc5)CC4)cc3)c2cc1OC` [cabozantinib], for which, in [1], the “%-inhibition of KIT” value is recorded as 97%. In addition, in experiment [2], the “%-inhibition of JNK3” value is -2%. Further, the “%-inhibition of HIPK3” value in [3] worked out at 67%. Further, in experiment [4], the “%-inhibition of NDR1” value was -5.4%. Moreover, the “%-inhibition of PKCι” value in experiment [5] was 15%. Also, the “%-inhibition of MAP3K4” value in [6] is listed as -0.178%. In addition, the “%-inhibition of NEK2” value in [7] is reported as -0.384%. For the same compound, in experiment [8], the “%-inhibition of JAK2” value is listed as 29%. In addition, in [9], the “%-inhibition of LYNa” value is listed as 100%. The “%-inhibition of RSK2” value in [10] is recorded as -3.61%.

In the case of `C[C@@H](Oc1cc(-c2cnn(C3CCNCC3)c2)cnc1N)c1c(Cl)ccc(F)c1Cl` [crizotinib], the “%-inhibition of KIT” value in experiment [1] was 16%. Further, the “%-inhibition of JNK3” value in experiment [2] is recorded as -1.87%. The “%-inhibition of HIPK3” value in [3] was -6%. Also, the “%-inhibition of NDR1” value in experiment [4] was -1.48%. The “%-inhibition of PKCι” value in experiment [5] is -5%. Also, the “%-inhibition of MAP3K4” value in experiment [6] came out at 5%. Also, the “%-inhibition of NEK2” value in experiment [7] is reported as -2.69%. Also, in experiment [8], the “%-inhibition of JAK2” value stood at 98%. Moreover, the “%-inhibition of LYNa” value in [9] is given as 42%. Further, the “%-inhibition of RSK2” value in experiment [10] came to 0.217%.

In the case of `CC(C)(C)c1nc(-c2cccc(NS(=O)(=O)c3c(F)cccc3F)c2F)c(-c2ccnc(N)n2)s1` [dabrafenib], the “%-inhibition of KIT” value in [1] is 59%. The “%-inhibition of JNK3” value in [2] came to 5.59%. The “%-inhibition of MET(Y1235D)” value in experiment [11] (setting [12]) came to 25%. Moreover, the “%-inhibition of HIPK3” value in experiment [3] is 65%. Besides, the “%-inhibition of NDR1” value in experiment [4] is -0.891%. Further, the “%-inhibition of PKCι” value in experiment [5] was 14%. Also, the “%-inhibition of MAP3K4” value in [6] is on record as 19%.

Regarding `Cc1nc(Nc2ncc(C(=O)Nc3c(C)cccc3Cl)s2)cc(N2CCN(CCO)CC2)n1` [dasatinib], the “%-inhibition of NDR1” value in experiment [4] is -1.85%.

As for `CO[C@H]1C[C@@H]2CC[C@@H](C)[C@@](O)(O2)C(=O)C(=O)N2CCCC[C@H]2C(=O)O[C@H]([C@H](C)C[C@@H]2CC[C@@H](OCCO)[C@H](OC)C2)CC(=O)[C@H](C)/C=C(\C)[C@@H](O)[C@@H](OC)C(=O)[C@H](C)C[C@H](C)/C=C/C=C/C=C/1C` [everolimus], in [1], the “%-inhibition of KIT” value is -10%. Moreover, the “%-inhibition of JNK3” value in experiment [2] is reported as -4.31%. Besides, the “%-inhibition of MET(Y1235D)” value in experiment [11] (setting [12]) is -5%. Besides, the “%-inhibition of HIPK3” value in experiment [3] is reported as -8%. Moreover, the “%-inhibition of NDR1” value in experiment [4] is -7%. Besides, the “%-inhibition of PKCι” value in experiment [5] is 3.78%. Moreover, the “%-inhibition of MAP3K4” value in experiment [6] is -1.11%. For the same compound, the “%-inhibition of NEK2” value in experiment [7] is -7%. Also, in [9], the “%-inhibition of LYNa” value is -1.27%. In addition, in experiment [10], the “%-inhibition of RSK2” value was -1.35%.

For `Cc1ccc(Nc2nccc(N(C)c3ccc4c(C)n(C)nc4c3)n2)cc1S(N)(=O)=O` [pazopanib], in experiment [1], the “%-inhibition of KIT” value worked out at 95%. Further, the “%-inhibition of HIPK3” value in experiment [3] came to 3%. The “%-inhibition of NDR1” value in [4] is given as 2.49%. Also, in experiment [5], the “%-inhibition of PKCι” value came out at 0.255%. For the same compound, the “%-inhibition of MAP3K4” value in experiment [6] turned out to be 2.47%. Also, the “%-inhibition of NEK2” value in experiment [7] is recorded as 27%. The “%-inhibition of JAK2” value in experiment [8] is given as 50%. Moreover, in experiment [9], the “%-inhibition of LYNa” value was 84%. Moreover, in experiment [10], the “%-inhibition of RSK2” value came out at 9%.

Turning to `Cc1ccc(C(=O)Nc2ccc(CN3CCN(C)CC3)c(C(F)(F)F)c2)cc1C#Cc1cnc2cccnn12` [ponatinib], the “%-inhibition of HIPK3” value in experiment [3] was 27%. In addition, in [5], the “%-inhibition of PKCι” value was 18%. Besides, the “%-inhibition of MAP3K4” value in experiment [6] was 60%. Further, the “%-inhibition of JAK2” value in experiment [8] was 92%. In addition, the “%-inhibition of LYNa” value in experiment [9] was 100%. For the same compound, the “%-inhibition of RSK2” value in [10] was found to be 30%.

For the compound `N#CC[C@H](C1CCCC1)n1cc(-c2ncnc3[nH]ccc23)cn1` [ruxolitinib], the “%-inhibition of KIT” value in [1] is reported as 3%. For the same compound, the “%-inhibition of JNK3” value in experiment [2] is -3%. In [11] (1 µM), the “%-inhibition of MET(Y1235D)” value is on record as -0.936%. The “%-inhibition of HIPK3” value in experiment [3] was found to be 2%. The “%-inhibition of NDR1” value in experiment [4] was 88%. Further, the “%-inhibition of PKCι” value in experiment [5] is reported as 1.52%. Further, the “%-inhibition of MAP3K4” value in experiment [6] is -4%. Besides, the “%-inhibition of NEK2” value in experiment [7] is -4%. For the same compound, the “%-inhibition of LYNa” value in experiment [9] turned out to be 13%. Besides, in [10], the “%-inhibition of RSK2” value is given as 9%.

`CCN(CC)CCNC(=O)c1c(C)[nH]c(/C=C2\C(=O)Nc3ccc(F)cc32)c1C` [sunitinib]: the “%-inhibition of NDR1” value in experiment [4] stood at 9%.

As for `CO[C@H]1C[C@@H]2CC[C@@H](C)[C@@](O)(O2)C(=O)C(=O)N2CCCC[C@H]2C(=O)O[C@H]([C@H](C)C[C@@H]2CC[C@@H](OC(=O)C(C)(CO)CO)[C@H](OC)C2)CC(=O)[C@H](C)/C=C(\C)[C@@H](O)[C@@H](OC)C(=O)[C@H](C)C[C@H](C)/C=C/C=C/C=C/1C` [temsirolimus], the “%-inhibition of KIT” value in [1] is -8%. Further, the “%-inhibition of JNK3” value in [2] is given as -1.22%. The “%-inhibition of MET(Y1235D)” value in [11] (setting [12]) is -6.4%. For the same compound, the “%-inhibition of HIPK3” value in [3] was determined as 0.626%. For the same compound, the “%-inhibition of NDR1” value in [4] is -4.55%. In addition, in experiment [5], the “%-inhibition of PKCι” value is 13%. Further, in experiment [6], the “%-inhibition of MAP3K4” value turned out to be 11%. The “%-inhibition of NEK2” value in experiment [7] is -5%. Moreover, the “%-inhibition of LYNa” value in [9] was -4.48%. Further, the “%-inhibition of RSK2” value in experiment [10] was -2.74%.

For the compound `CC(=O)Nc1cccc(-n2c(=O)n(C3CC3)c(=O)c3c(Nc4ccc(I)cc4F)n(C)c(=O)c(C)c32)c1` [trametinib], in experiment [1], the “%-inhibition of KIT” value is reported as -0.648%. The “%-inhibition of JNK3” value in [2] is recorded as -2.37%. Also, the “%-inhibition of MET(Y1235D)” value in experiment [11] (setting [12]) was -1.5%. Also, the “%-inhibition of HIPK3” value in [3] was 0.0849%. Moreover, in experiment [4], the “%-inhibition of NDR1” value is listed as -1.68%. The “%-inhibition of PKCι” value in experiment [5] is recorded as 9%. Also, the “%-inhibition of MAP3K4” value in [6] amounted to 6%. Further, in [7], the “%-inhibition of NEK2” value amounted to 2.76%. Further, in experiment [9], the “%-inhibition of LYNa” value was -1.74%. Further, in experiment [10], the “%-inhibition of RSK2” value is given as -1.76%.

On to `COc1cc2c(Nc3ccc(Br)cc3F)ncnc2cc1OCC1CCN(C)CC1` [vandetanib], for which, in [2], the “%-inhibition of JNK3” value is given as -0.407%. Moreover, in [3], the “%-inhibition of HIPK3” value is recorded as -11%. In addition, the “%-inhibition of NDR1” value in [4] is -9%. In addition, the “%-inhibition of PKCι” value in experiment [5] turned out to be 6%. Also, in experiment [6], the “%-inhibition of MAP3K4” value was -10%. Moreover, in experiment [7], the “%-inhibition of NEK2” value is listed as -7.42%. For the same compound, the “%-inhibition of JAK2” value in [8] is on record as 0.942%. Further, the “%-inhibition of LYNa” value in [9] was found to be 93%. Moreover, the “%-inhibition of RSK2” value in experiment [10] stood at 5.7%.
